What all share (format): cell-based
One data set concerns T. brucei (Squib 427). Description: In vitro drug susceptibility assay, T. brucei. Particulars: Trypanosoma brucei; Table 1; mean and SEM of two independent experiments; read-out: T. brucei in vitro activity (IC50). The method, then: Drug susceptibility assays with T. brucei (Squib 427), T. evansi type A (RoTat 1.2) and T. equiperdum (BoTat 1.1) were performed under similar conditions. Parasites were cultured in HMI-9 culture medium supplemented with 10% iFBS. To determine in vitro susceptibility of the abovementioned Trypanosoma species, 10 concentrations of a 4-fold dilution series (with a highest in-test concentration of 64 μM) was prepared for each compound, and parasites were seeded at 1.5×10^4 parasite/well. After 72 h of drug exposure at 37° C. with 5% CO2, resazurin was added to the wells (final concentration of 10 μg mL^−1), followed by another incubation for 24 h. Cell viability was determined by fluorescence reading (Tecan®, GENios) and 50% inhibitory concentration (IC50) was calculated for each compound.

In another data set the test system is T. vivax (ILRAD700). Description: Ex vivo drug susceptibility assay, T. vivax. The following applies: Trypanosoma vivax; Table 1; mean and SEM of two independent experiments; read-out: T. vivax in vitro activity (IC50). From the text:
T. congolense (IL3000), the isometamidium (ISM)-resistant T. congolense strain (MSORO M7H), T. evansi type A (RoTat 1.2), T. evansi type B (KETRI 2479) and T. equiperdum (BoTat 1.1) used for in vitro, ex vivo and in vivo experiments were kindly provided by the Institute of Tropical Medicine (ITM), and T. vivax (ILRAD700) and T. congolense (TC13) used for ex vivo and in vivo experiments, were kindly provided by the University of Brussel (VUB).
Ex Vivo Drug Susceptibility Assays for T. vivax, T. congolense ISM-Resistant, and T. evansi Type B
For Trypanosoma species/strains that were not adapted to culture conditions, donor mice were infected intraperitoneally with 10^4 parasites. Around day 5-6 post infection, blood was collected via cardiac puncture and parasites were isolated using mini-anion exchange centrifugation technique (mAECT). 4-fold dilutions of the test compounds were prepared with the highest concentration of 64 μM, and parasites were seeded at 1×10^5 parasite/well. Following 24 h of drug exposure at 37° C. and 5% CO2, resazurin was added to the wells and plates were incubated (37° C./5% CO2) for another 24 h. Cell viability was determined by fluorescence reading (Tecan®, GENios), and IC50 values were calculated by non-linear regression (dose-response curve with variable slope) using Prism 8.0 (GraphPad Software Inc., San Diego, CA, USA).

Data set [1] in a line: Cytotoxicity assay on MRC-5 fibroblasts. The following applies: human, MRC-5SV2 embryonic lung fibroblasts; Table 1; mean and SEM of two independent experiments; highest concentration 64 μM; read-out: MRC-5 off-target cytotoxicity (CC50). The method, then:
MRC-5SV2 (Sigma-Aldrich/ECACC, catalogue number 84100401) human embryonic lung fibroblasts were used to perform cytotoxicity assays. The cells were cultured in minimum essential medium (MEM, Life Technologies) with Earle's salt medium, supplemented with L-glutamine, NaHCO3 and 5% inactivated fetal bovine serum (iFBS). Cells were seeded at 1.5×10^4 cells/well and 4-fold compound dilutions were immediately added with a highest in-test concentration of 64 μM. After a 3-day incubation, resazurin (Sigma-Aldrich) was added to each well (final concentration of 10 μg mL^−1), and cell viability was assessed by fluorescent reading (Tecan®, GENios) following 4 h of incubation with resazurin (37° C./5% CO2). The results were expressed as percentage reduction in cell growth/viability compared to control wells and the 50% cytotoxic concentration (CC50) was calculated for each of the compounds.

For the molecule `CCCSc1ncnc2c1ccn2[C@@H]1O[C@H](CO)[C@@H](O)[C@H]1O` [FH15935, 4-S-propyl-N7-(β-D-ribofuranosyl)pyrrolo[2,3-d]pyrimidine], the half-maximal inhibitory concentration (IC50) came out at 30 ± 0.9 nM in the data set with T. brucei (Squib 427) and 23 ± 5 nM with T. vivax (ILRAD700). For the same molecule, the cytotoxic concentration (CC50) at 3 day in data set [1] is more than 64000 nM.
For `CCC(C)Sc1ncnc2c1ccn2[C@@H]1O[C@H](CO)[C@@H](O)[C@H]1O` (stereo partly drawn) [FH15956, 4-S-sec-butyl-N7-(β-D-ribofuranosyl)pyrrolo[2,3-d]pyrimidine] the same measures were 360 ± 40 nM, 1980 ± 940 nM and more than 64000 nM.
The corresponding values for `CCCCCSc1ncnc2c1ccn2[C@@H]1O[C@H](CO)[C@@H](O)[C@H]1O` [FH15937, 4—S-pentyl-N7-(β-D-ribofuranosyl)pyrrolo[2,3-d]pyridimidine] are 31 ± 1 nM, 2190 ± 610 nM and 35300 ± 1000 nM.
Take `OC[C@H]1O[C@@H](n2ccc3c(SC4CCCCC4)ncnc32)[C@H](O)[C@@H]1O` [FH15957, 4-S-cyclohexyl-N7-(β-D-ribofuranosyl)pyrrolo[2,3-d]pyrimidine]: the half-maximal inhibitory concentration (IC50) with T. brucei (Squib 427) turned out to be 190 ± 40 nM; with T. vivax (ILRAD700), 3160 ± 710 nM. Further, in data set [1], the cytotoxic concentration (CC50) at 3 day came out at 58800 ± 1370 nM.
For `OC[C@H]1O[C@@H](n2ccc3c(SCCCc4ccccc4)ncnc32)[C@H](O)[C@@H]1O` [FH15940, 4-(3-phenylpropyl)thio-N7-(β-D-ribofuranosyl)pyrrolo[2,3-d]pyrimidine] the same measures were 106 ± 4 nM, 8710 ± 1190 nM and 24300 ± 940 nM.
As to `OC[C@H]1O[C@@H](n2ccc3c(SC4CCCC4)ncnc32)[C@H](O)[C@@H]1O` [FH15952, 4—S-cyclopentyl-N7-(β-D-ribofuranosyl)pyrrolo[2,3-d]pyrimidine], the half-inhibitory concentration (IC50) turned out to be 91 ± 1 nM with T. brucei (Squib 427) and 620 ± 160 nM with T. vivax (ILRAD700). Further, the CC50 at 3 day in data set [1] was 45500 ± 1870 nM.
Regarding `CC(C)Sc1ncnc2c1ccn2[C@@H]1O[C@H](CO)[C@@H](O)[C@H]1O` [FH15958], the IC50 amounted to 540 ± 40 nM in the data set on T. brucei (Squib 427) and 460 ± 250 nM in the data set on T. vivax (ILRAD700). Moreover, the CC50 at 3 day in data set [1] is more than 64000 nM.
With `CCSc1ncnc2c1ccn2[C@@H]1O[C@H](CO)[C@@H](O)[C@H]1O` [FH15938, 4-S-ethyl-N7-(β-D-ribofuranosyl)pyrrolo[2,3-d]pyrimidine], the values for the 50% inhibitory concentration (IC50) in the data set on T. brucei (Squib 427) and in the data set with T. vivax (ILRAD700) were 250 ± 50 nM and 31 ± 9 nM, respectively. Moreover, the CC50 at 3 day in data set [1] was determined as 28200 ± 2030 nM.
For `Cc1ccc(CSc2ncnc3c2ccn3[C@@H]2O[C@H](CO)[C@@H](O)[C@H]2O)cc1` [FH15959, 4-S-(4-methylbenzyl)-N7-(β-D-ribofuranosyl)pyrrolo[2,3-d]pyrimidine], the results for the IC50 in the data set on T. brucei (Squib 427) and with T. vivax (ILRAD700) were 31 ± 1 nM and 18800 ± 650 nM, respectively. In addition, in data set [1], the CC50 at 3 day is more than 64000 nM.
In the case of `CC(C)CCSc1ncnc2c1ccn2[C@@H]1O[C@H](CO)[C@@H](O)[C@H]1O` [FH15954, 4-S-isopentyl-N7-(β-D-ribofuranosyl)pyrrolo[2,3-d]pyrimidine], the IC50 worked out at 30 ± 4 nM in the data set on T. brucei (Squib 427) and 230 ± 20 nM with T. vivax (ILRAD700). Besides, in data set [1], the CC50 at 3 day turned out to be 43200 ± 2630 nM.
The corresponding values for `CCCCSc1ncnc2c1ccn2[C@@H]1O[C@H](CO)[C@@H](O)[C@H]1O` [FH15936] are 30 ± 0.1 nM, 24 ± 7 nM and more than 64000 nM.
The corresponding values for `COc1ccc(CSc2ncnc3c2ccn3[C@@H]2O[C@H](CO)[C@@H](O)[C@H]2O)cc1` [FH15960] are 130 ± 8 nM, 820 ± 270 nM and more than 64000 nM.
For `OC[C@H]1O[C@@H](n2ccc3c(SCc4ccccc4)ncnc32)[C@H](O)[C@@H]1O` [FH14905] the same measures were 19 ± 2 nM, 32300 ± 4850 nM and more than 64000 nM.
In the case of `CC(C)c1ccc(CSc2ncnc3c2ccn3[C@@H]2O[C@H](CO)[C@@H](O)[C@H]2O)cc1` [FH15941, 4-S-(4-isopropylbenzyl)-N7-(β-D-ribofuranosyl)pyrrolo[2,3-d]pyrimidine], the 50% inhibitory concentration (IC50) amounted to 440 ± 20 nM with T. brucei (Squib 427) and 2370 ± 1470 nM in the data set with T. vivax (ILRAD700). Moreover, the cytotoxic concentration (CC50) at 3 day in data set [1] amounted to 26900 ± 1380 nM.
The corresponding values for `OC[C@H]1O[C@@H](n2ccc3c(SCCc4ccccc4)ncnc32)[C@H](O)[C@@H]1O` [FH15953, 4-S-phenethyl-N7-(β-D-ribofuranosyl)pyrrolo[2,3-d]pyrimidine] are 410 ± 10 nM, 4930 ± 590 nM and 28900 ± 1340 nM.
Consider `OC[C@H]1O[C@@H](n2ccc3c(SCC4CCCCC4)ncnc32)[C@H](O)[C@@H]1O` [FH15962, 4-S-cyclohexylmethyl-N7-(β-D-ribofuranosyl)pyrrolo[2,3-d]pyrimidine], for which the IC50 was found to be 31 ± 10 nM in the data set with T. brucei (Squib 427) and 2860 ± 260 nM with T. vivax (ILRAD700). In addition, in data set [1], the 50% cytotoxic concentration (CC50) at 3 day was determined as 19000 nM.
Consider `OC[C@H]1O[C@@H](n2ccc3c(SCc4ccc(Cl)c(Cl)c4)ncnc32)[C@H](O)[C@@H]1O` [FH15934, 4-S-(3,4-dichlorobenzyl)-N7-(β-D-ribofuranosyl)pyrrolo[2,3-d]pyrimidine], for which the results for the IC50 in the data set on T. brucei (Squib 427) and in the data set on T. vivax (ILRAD700) were 85 ± 1 nM and 8870 ± 90 nM, respectively. Moreover, the CC50 at 3 day in data set [1] turned out to be 13900 ± 970 nM.
As for `CC(C)CSc1ncnc2c1ccn2[C@@H]1O[C@H](CO)[C@@H](O)[C@H]1O` [FH15955, 4-S-2-methylpropyl-N7-(β-D-ribofuranosyl)pyrrolo[2,3-d]pyrimidine], the half-inhibitory concentration (IC50) worked out at 32 ± 1 nM in the data set on T. brucei (Squib 427) and 21 ± 2 nM in the data set with T. vivax (ILRAD700). Further, in data set [1], the CC50 at 3 day was more than 64000 nM.
`OC[C@H]1O[C@@H](n2ccc3c(SCC4CCCC4)ncnc32)[C@H](O)[C@@H]1O` [FH15939, 4-cylopentylmethylthio-N7-(β-D-ribofuranosyl)pyrrolo[2,3-d]pyrimidine]: the IC50 in the data set with T. brucei (Squib 427) was 32 ± 21 nM; in the data set on T. vivax (ILRAD700), 690 ± 250 nM. In data set [1], the CC50 at 3 day stood at 32300 ± 1000 nM.

Usually IC50 stands for the concentration needed to halve the response being measured. For orientation: CC50 means the concentration at which the toxic effect on the cells reaches its halfway point.

These data come from patent US20250320245A1, “Nucleoside Analogues for the Treatment of Parasitic Infections” (Universiteit Antwerpen, priority 2021, published 2025).
